Tests used:
Conditions in all cases: 48 h
SEM cells [1] = assay: AUC of viability dose-response curve (% viability x log10 dose units); higher = less sensitive
In short: (§1)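 Leukemia cells adapted to each medium (500 or 1000 cells/well, 1536-well plates) were exposed to library compounds in DMSO for 48 h at 37°C at 11 threefold doses, 47 μM to 0.79 nM. Luminescence by CellTiter-Glo One was normalised per plate to DMSO and cell-free wells, then fitted with a four-parameter log-logistic curve on log10 dose. Curves above full viability were scaled and quality-control failures removed before area under the curve was integrated by trapezoidal rule.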

P12-Ichikawa [2] = assay: as above
In short: as §1

NOMO1 [3] = assay: as above
In short: as §1

SEM cells [4] = assay: cell viability relative to DMSO control; higher = less cytotoxic
In short: (§2)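 Viability values are per-plate percentages of DMSO wells, with background from cell-free wells. Library compounds in DMSO were pin-dosed, in an 11-point threefold series from 47 μM to 0.79 nM, onto NOMO1 or SEM (500 cells/well) or P12-Ichikawa (1000 cells/well) leukemia cells in 1536-well plates (5 μl). Those cells had been adapted for at least four passages in each medium, and CellTiter-Glo One luminescence was read after 48 h at 37°C.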

P12-Ichikawa [5] = assay: as above
In short: as §2

NOMO1 [6] = assay: as above
In short: as §2

O=C(Nc1nnc(-c2ccco2)o1)c1cc(-c2ccccc2)nc2ccccc12
AUC of viability dose-response curve
Conditions | NOMO1 [3] | P12-Ichikawa [2] | SEM cells [1]
HPLM + 10% dialyzed FBS | 393 | 379 | 442
RPMI 5 mM glucose + 10% FBS | 455 | 448 | 348
RPMI 5 mM glucose + 10% dialyzed FBS | 451 | 451 | 443

cell viability [%]
Conditions | NOMO1 [6] | P12-Ichikawa [5] | SEM cells [4]
HPLM + 10% dialyzed FBS, 0.000781 µM | 92.3 | 113 | 87.5
HPLM + 10% dialyzed FBS, 0.00234 µM | 103 | 99.3 | 96.5
HPLM + 10% dialyzed FBS, 0.00702 µM | 117 | 103 | 96.3
HPLM + 10% dialyzed FBS, 0.0211 µM | 124 | 116 | 95
HPLM + 10% dialyzed FBS, 0.0632 µM | 118 | 113 | 91.5
HPLM + 10% dialyzed FBS, 0.19 µM | 120 | 110 | 110
HPLM + 10% dialyzed FBS, 0.569 µM | 114 | 116 | 95.3
HPLM + 10% dialyzed FBS, 1.71 µM | 114 | 109 | 106
HPLM + 10% dialyzed FBS, 5.12 µM | 65.5 | 44.4 | 103
HPLM + 10% dialyzed FBS, 15.4 µM | 18.7 | 3.09 | 93
HPLM + 10% dialyzed FBS, 46.1 µM | 6.68 | 3.16 | 4.54
RPMI 5 mM glucose + 10% FBS, 0.000781 µM | 107 | 104 | 92.6
RPMI 5 mM glucose + 10% FBS, 0.00234 µM | 101 | 105 | 75.1
RPMI 5 mM glucose + 10% FBS, 0.00702 µM | 99.9 | 115 | 95.6
RPMI 5 mM glucose + 10% FBS, 0.0211 µM | 105 | 110 | 79.7
RPMI 5 mM glucose + 10% FBS, 0.0632 µM | 100 | 116 | 104
RPMI 5 mM glucose + 10% FBS, 0.19 µM | 101 | 113 | 95.6
RPMI 5 mM glucose + 10% FBS, 0.569 µM | 93 | 118 | 98.2
RPMI 5 mM glucose + 10% FBS, 1.71 µM | 111 | 119 | 85
RPMI 5 mM glucose + 10% FBS, 5.12 µM | 98.3 | 117 | 41.3
RPMI 5 mM glucose + 10% FBS, 15.4 µM | 99.3 | 97.8 | 5.04
RPMI 5 mM glucose + 10% FBS, 46.1 µM | 13.7 | 6.52 | 2.95
RPMI 5 mM glucose + 10% dialyzed FBS, 0.000781 µM | 102 | 95.7 | 91.8
RPMI 5 mM glucose + 10% dialyzed FBS, 0.00234 µM | 89.3 | 99.8 | 94.2
RPMI 5 mM glucose + 10% dialyzed FBS, 0.00702 µM | 107 | 99.2 | 104
RPMI 5 mM glucose + 10% dialyzed FBS, 0.0211 µM | 96.2 | 94.2 | 101
RPMI 5 mM glucose + 10% dialyzed FBS, 0.0632 µM | 103 | 108 | 107
RPMI 5 mM glucose + 10% dialyzed FBS, 0.19 µM | 112 | 105 | 109
RPMI 5 mM glucose + 10% dialyzed FBS, 0.569 µM | 93.4 | 100 | 99
RPMI 5 mM glucose + 10% dialyzed FBS, 1.71 µM | 117 | 105 | 95.3
RPMI 5 mM glucose + 10% dialyzed FBS, 5.12 µM | 118 | 102 | 106
RPMI 5 mM glucose + 10% dialyzed FBS, 15.4 µM | 106 | 93.2 | 77.8
RPMI 5 mM glucose + 10% dialyzed FBS, 46.1 µM | 13.5 | 7.67 | 3.49

C[C@@H]1O[C@@H](O[C@H]2C[C@@H](O)[C@]3(CO)[C@H]4[C@H](O)C[C@]5(C)[C@@H](C6=CC(=O)OC6)CC[C@]5(O)[C@@H]4CC[C@]3(O)C2)[C@H](O)[C@H](O)[C@H]1O
AUC of viability dose-response curve
Conditions | NOMO1 [3] | P12-Ichikawa [2] | SEM cells [1]
HPLM + 10% dialyzed FBS | 197 | 203 | 179
RPMI 5 mM glucose + 10% FBS | 248 | 235 | 234
RPMI 5 mM glucose + 10% dialyzed FBS | 227 | 211 | 216

cell viability [%]
Conditions | NOMO1 [6] | P12-Ichikawa [5] | SEM cells [4]
HPLM + 10% dialyzed FBS, 0.000781 µM | 94.8 | 98.5 | 85.4
HPLM + 10% dialyzed FBS, 0.00234 µM | 104 | 96.7 | 99.6
HPLM + 10% dialyzed FBS, 0.00702 µM | 99 | 97.5 | 93.6
HPLM + 10% dialyzed FBS, 0.0211 µM | 81.8 | 85.2 | 85.8
HPLM + 10% dialyzed FBS, 0.0632 µM | 32.9 | 32.9 | 17.8
HPLM + 10% dialyzed FBS, 0.19 µM | 14.5 | 11.5 | 9.08
HPLM + 10% dialyzed FBS, 0.569 µM | 9.66 | 10.7 | 7.03
HPLM + 10% dialyzed FBS, 1.71 µM | 8.1 | 12.3 | 5.97
HPLM + 10% dialyzed FBS, 5.12 µM | 8.19 | 12.7 | 7.25
HPLM + 10% dialyzed FBS, 15.4 µM | 8.12 | 12.9 | 6.63
HPLM + 10% dialyzed FBS, 46.1 µM | 6.11 | 9.88 | 6.23
RPMI 5 mM glucose + 10% FBS, 0.000781 µM | 93.1 | 92.2 | 109
RPMI 5 mM glucose + 10% FBS, 0.00234 µM | 95.2 | 105 | 113
RPMI 5 mM glucose + 10% FBS, 0.00702 µM | 109 | 102 | 114
RPMI 5 mM glucose + 10% FBS, 0.0211 µM | 110 | 94.7 | 106
RPMI 5 mM glucose + 10% FBS, 0.0632 µM | 95.3 | 80 | 109
RPMI 5 mM glucose + 10% FBS, 0.19 µM | 39.6 | 33.6 | 14.9
RPMI 5 mM glucose + 10% FBS, 0.569 µM | 13.6 | 9.32 | 7.93
RPMI 5 mM glucose + 10% FBS, 1.71 µM | 8.12 | 8.91 | 6.18
RPMI 5 mM glucose + 10% FBS, 5.12 µM | 8.09 | 6.97 | 8
RPMI 5 mM glucose + 10% FBS, 15.4 µM | 7.5 | 6.93 | 7.1
RPMI 5 mM glucose + 10% FBS, 46.1 µM | 5.41 | 5.78 | 6.23
RPMI 5 mM glucose + 10% dialyzed FBS, 0.000781 µM | 97.8 | 98.8 | 104
RPMI 5 mM glucose + 10% dialyzed FBS, 0.00234 µM | 109 | 101 | 100
RPMI 5 mM glucose + 10% dialyzed FBS, 0.00702 µM | 103 | 98.7 | 97.3
RPMI 5 mM glucose + 10% dialyzed FBS, 0.0211 µM | 117 | 88.7 | 98.3
RPMI 5 mM glucose + 10% dialyzed FBS, 0.0632 µM | 73.2 | 56.4 | 60
RPMI 5 mM glucose + 10% dialyzed FBS, 0.19 µM | 30 | 17.6 | 12.6
RPMI 5 mM glucose + 10% dialyzed FBS, 0.569 µM | 11.3 | 9.86 | 7.03
RPMI 5 mM glucose + 10% dialyzed FBS, 1.71 µM | 6.76 | 8.22 | 6.93
RPMI 5 mM glucose + 10% dialyzed FBS, 5.12 µM | 6.52 | 6.53 | 8.44
RPMI 5 mM glucose + 10% dialyzed FBS, 15.4 µM | 6.15 | 5.46 | 7.07
RPMI 5 mM glucose + 10% dialyzed FBS, 46.1 µM | 5.29 | 4.89 | 7.5
